Activity calls are given as the source filed them.
Assays:
[1] = molecular target: Glyceraldehyde-3-phosphate dehydrogenase (Homo sapiens, UniProt P04406)
[2] = molecular target: T1, Fructose-bisphosphate aldolase (Mycobacterium tuberculosis, UniProt P9WQA3); assay: Fluorescence-based biochemical high throughput dose response assay for inhibitors of the fructose-bisphosphate aldolase (FBA) of M. tuberculosis.; type: functional
T1 sequence (P9WQA3 whole entry): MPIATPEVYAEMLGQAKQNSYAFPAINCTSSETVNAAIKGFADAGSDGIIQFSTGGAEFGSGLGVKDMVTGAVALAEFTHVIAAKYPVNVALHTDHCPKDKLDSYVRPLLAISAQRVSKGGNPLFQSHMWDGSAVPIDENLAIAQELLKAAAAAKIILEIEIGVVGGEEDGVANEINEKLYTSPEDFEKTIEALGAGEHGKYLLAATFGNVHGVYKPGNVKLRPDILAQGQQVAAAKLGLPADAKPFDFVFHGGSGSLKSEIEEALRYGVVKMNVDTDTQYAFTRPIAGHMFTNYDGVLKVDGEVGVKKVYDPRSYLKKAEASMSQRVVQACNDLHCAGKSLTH

[3] = molecular target: T2, Small ubiquitin-related modifier 1 (Homo sapiens, UniProt P63165); assay: SUMO1 protein interaction blockers, potency – biochemical, fluorescence polarization, uHTS hits, dose response (AID 624382); type: functional; settings: read-out: IC50_Mean
T2 sequence (P63165 whole entry): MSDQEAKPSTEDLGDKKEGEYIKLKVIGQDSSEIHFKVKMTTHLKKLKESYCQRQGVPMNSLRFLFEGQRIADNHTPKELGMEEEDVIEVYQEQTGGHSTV

[4] = molecular target: T2, Small ubiquitin-related modifier 1; assay: SUMO1 protein-protein binding blockers, potency – biochemical, FRET, dose response (AID 624383); type: functional; settings: read-out: IC50_Mean
[5] = molecular target: T3, Rac GTPase-activating protein 1 (Homo sapiens, UniProt Q9H0H5); assay: blockers of MgcRacGAP-driven Rac1 GTP hydrolysis – biochemical, ADP Hunter fluorescence, primary and confirmatory, confirmation (AID 624330); type: functional
T3 sequence (Q9H0H5 whole entry): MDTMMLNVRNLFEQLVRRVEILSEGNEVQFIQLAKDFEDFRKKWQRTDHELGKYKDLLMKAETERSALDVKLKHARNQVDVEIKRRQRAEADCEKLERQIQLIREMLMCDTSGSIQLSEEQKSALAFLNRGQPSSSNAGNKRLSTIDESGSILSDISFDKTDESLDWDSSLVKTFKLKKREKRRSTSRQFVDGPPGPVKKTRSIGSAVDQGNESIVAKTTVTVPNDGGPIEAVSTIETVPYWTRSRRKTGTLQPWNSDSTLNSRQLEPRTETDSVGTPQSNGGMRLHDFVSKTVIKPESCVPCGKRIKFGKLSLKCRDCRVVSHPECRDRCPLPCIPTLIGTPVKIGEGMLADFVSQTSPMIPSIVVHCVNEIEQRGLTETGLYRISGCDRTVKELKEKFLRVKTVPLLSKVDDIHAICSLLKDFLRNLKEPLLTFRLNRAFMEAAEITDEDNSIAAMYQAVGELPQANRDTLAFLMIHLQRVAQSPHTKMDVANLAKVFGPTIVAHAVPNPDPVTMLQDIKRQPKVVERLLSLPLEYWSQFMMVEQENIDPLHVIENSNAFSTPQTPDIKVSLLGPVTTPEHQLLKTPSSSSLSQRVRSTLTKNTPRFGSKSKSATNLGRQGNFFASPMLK

[6] = viability loss in HeLa cells – cytotoxicity control for MgcRacGAP inhibitor project, dose response (AID 624300); type: functional
[7] = molecular target: T4, Long-chain-fatty-acid--AMP ligase FadD28 (Mycobacterium tuberculosis, UniProt P9WQ59); assay: Fluorescence polarization aasay to screen for inhibitors that compete for the binding of FadD28 to a bisubstrate Measured in Biochemical System Using Plate Reader - 2147-01_Inhibitor_Dose_CherryPick_Activity.; type: functional, Mycobacterium tuberculosis H37Rv
T4 sequence (P9WQ59 whole entry): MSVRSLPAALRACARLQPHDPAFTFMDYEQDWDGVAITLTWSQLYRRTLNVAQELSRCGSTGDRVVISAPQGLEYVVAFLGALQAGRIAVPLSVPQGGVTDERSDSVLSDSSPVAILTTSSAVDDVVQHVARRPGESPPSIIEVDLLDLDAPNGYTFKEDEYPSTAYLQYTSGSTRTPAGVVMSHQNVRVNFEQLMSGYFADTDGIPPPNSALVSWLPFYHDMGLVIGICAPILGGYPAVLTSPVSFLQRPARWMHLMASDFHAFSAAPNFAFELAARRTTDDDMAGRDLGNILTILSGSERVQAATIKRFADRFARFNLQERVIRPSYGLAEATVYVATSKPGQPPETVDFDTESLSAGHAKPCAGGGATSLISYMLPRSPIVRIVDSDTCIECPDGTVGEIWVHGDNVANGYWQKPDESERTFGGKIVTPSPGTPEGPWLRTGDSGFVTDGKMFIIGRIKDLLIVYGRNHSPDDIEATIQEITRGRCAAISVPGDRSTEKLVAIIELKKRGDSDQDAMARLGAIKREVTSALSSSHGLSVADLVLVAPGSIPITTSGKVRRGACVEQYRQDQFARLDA

[8] = molecular target: T5, Sentrin-specific protease 1 (Homo sapiens, UniProt Q9P0U3); assay: SENP1 catalytic domain blockers, concentration series – biochemical, kinetic FRET, dose response (AID 651697); type: functional; settings: read-out: IC50_Mean
T5 sequence (Q9P0U3 whole entry): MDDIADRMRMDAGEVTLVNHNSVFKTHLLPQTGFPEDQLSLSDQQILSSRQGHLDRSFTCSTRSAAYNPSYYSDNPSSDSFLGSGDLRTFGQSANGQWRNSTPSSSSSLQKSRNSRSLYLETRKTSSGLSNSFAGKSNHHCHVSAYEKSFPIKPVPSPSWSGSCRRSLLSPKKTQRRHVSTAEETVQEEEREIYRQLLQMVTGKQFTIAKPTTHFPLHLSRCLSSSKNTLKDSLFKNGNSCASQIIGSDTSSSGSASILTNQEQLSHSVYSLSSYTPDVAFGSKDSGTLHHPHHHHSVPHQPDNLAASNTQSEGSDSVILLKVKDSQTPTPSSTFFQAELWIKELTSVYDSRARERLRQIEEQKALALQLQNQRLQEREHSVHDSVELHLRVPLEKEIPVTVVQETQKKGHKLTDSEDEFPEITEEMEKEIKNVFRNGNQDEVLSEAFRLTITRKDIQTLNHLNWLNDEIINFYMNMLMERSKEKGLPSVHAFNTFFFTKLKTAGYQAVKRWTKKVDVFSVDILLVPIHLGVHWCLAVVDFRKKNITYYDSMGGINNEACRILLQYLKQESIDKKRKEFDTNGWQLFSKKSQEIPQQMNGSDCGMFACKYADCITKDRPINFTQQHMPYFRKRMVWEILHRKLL

[9] = molecular target: T5, Sentrin-specific protease 1; assay: Dose response confirmation of small molecule inhibitors of the catalytic domain of the SUMO protease, SENP1 in a FRET assay.; type: functional; settings: read-out: IC50_Mean
Leucine aminopeptidase = molecular target: T6, Leucine aminopeptidase (Plasmodium falciparum 3D7, UniProt Q8IL11); assay: P. falciparum M17LAP inhibitors, primary screen, biochemical, fluorogenic H-Leu-NHMec substrate, 1536-well (AID 1619); type: functional
T6 sequence (Q8IL11 whole entry): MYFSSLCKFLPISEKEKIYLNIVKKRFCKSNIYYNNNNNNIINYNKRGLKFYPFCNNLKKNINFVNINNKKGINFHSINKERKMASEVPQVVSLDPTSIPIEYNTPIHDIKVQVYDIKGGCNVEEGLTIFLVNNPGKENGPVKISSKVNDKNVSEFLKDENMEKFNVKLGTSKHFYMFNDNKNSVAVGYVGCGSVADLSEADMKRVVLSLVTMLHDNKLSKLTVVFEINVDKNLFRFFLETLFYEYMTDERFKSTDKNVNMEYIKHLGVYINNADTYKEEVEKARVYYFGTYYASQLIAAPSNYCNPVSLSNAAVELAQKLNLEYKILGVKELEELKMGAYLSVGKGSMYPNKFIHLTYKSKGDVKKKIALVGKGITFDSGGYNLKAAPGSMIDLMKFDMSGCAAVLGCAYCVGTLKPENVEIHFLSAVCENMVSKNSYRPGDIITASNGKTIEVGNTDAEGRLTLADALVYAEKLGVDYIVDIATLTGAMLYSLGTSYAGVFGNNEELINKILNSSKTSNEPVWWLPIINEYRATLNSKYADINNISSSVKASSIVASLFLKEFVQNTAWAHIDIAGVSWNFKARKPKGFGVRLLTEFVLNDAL

Nonstructural protein 1 = Nonstructural protein 1 (Influenza A virus, UniProt Q194T2); type: functional, Influenza A virus (A/California/07/2009(H1N1))
Sequence of Nonstructural protein 1 (Q194T2 whole entry): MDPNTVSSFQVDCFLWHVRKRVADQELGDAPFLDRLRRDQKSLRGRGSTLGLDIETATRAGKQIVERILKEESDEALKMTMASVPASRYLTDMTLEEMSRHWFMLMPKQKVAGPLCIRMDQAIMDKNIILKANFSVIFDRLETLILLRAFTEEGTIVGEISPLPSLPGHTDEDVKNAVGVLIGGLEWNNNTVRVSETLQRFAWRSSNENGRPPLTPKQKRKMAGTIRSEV

[10] = HEK-293T viability loss after treatment – luminescence, T-cell screen hits, cytotoxicity control for TCR NF-kB inhibitor project, dose response (AID 489026); type: functional, cell-based;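 note: cells exposed to compound about 14 hours before the viability readout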
[11] = molecular target: T7, Apoptotic protease-activating factor 1 (Homo sapiens, UniProt O14727); type: functional
T7 sequence (O14727 whole entry): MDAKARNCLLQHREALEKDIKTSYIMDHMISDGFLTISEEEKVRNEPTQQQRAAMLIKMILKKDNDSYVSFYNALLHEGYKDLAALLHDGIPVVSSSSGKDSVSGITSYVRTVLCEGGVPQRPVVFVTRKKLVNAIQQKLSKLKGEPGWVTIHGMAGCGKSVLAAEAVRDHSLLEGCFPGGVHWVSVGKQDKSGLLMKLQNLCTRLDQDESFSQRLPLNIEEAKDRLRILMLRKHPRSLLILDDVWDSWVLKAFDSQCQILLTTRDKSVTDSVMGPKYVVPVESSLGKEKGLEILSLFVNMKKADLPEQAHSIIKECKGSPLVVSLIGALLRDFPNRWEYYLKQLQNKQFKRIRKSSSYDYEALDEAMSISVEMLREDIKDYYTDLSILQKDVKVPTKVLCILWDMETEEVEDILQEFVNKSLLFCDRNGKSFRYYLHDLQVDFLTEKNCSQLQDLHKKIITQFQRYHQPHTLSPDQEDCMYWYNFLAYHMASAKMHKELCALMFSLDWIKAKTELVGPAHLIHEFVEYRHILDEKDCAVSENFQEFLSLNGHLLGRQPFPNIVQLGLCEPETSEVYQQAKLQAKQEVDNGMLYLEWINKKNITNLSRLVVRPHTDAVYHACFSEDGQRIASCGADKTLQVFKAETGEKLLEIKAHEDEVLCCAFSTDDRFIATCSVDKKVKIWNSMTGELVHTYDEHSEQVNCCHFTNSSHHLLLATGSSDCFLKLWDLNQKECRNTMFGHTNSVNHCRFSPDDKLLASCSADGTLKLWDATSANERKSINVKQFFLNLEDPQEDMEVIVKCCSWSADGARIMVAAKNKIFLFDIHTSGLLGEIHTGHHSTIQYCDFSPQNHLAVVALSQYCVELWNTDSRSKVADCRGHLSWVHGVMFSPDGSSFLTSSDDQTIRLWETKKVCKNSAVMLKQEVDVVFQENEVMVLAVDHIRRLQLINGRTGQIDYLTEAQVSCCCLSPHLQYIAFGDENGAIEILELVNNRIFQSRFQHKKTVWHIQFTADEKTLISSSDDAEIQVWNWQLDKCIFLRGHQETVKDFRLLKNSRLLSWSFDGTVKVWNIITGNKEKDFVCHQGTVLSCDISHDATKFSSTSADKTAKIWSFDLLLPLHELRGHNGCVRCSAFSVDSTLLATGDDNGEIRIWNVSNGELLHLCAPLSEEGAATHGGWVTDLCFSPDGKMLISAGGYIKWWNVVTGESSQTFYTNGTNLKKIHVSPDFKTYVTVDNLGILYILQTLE

INS1 = assay: INS-1E survival protection against cytokine death – cell-based, luminescence, retest, dose response (AID 449756); type: functional; settings: Rattus norvegicus;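 note: cell death triggered by IL-1 beta plus TNF-alpha plus IFN-gamma mixture; protective hits raise ATP signal compared with cytokine alone wells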
Genome polyprotein = Genome polyprotein (dengue virus type 2, UniProt P29990); assay: flavivirus cap methylation enzyme inhibition – biochemical, confirmation dose response, primary screen (AID 588689); type: functional
Sequence of Genome polyprotein (P29990 2492-3391 limits assumed): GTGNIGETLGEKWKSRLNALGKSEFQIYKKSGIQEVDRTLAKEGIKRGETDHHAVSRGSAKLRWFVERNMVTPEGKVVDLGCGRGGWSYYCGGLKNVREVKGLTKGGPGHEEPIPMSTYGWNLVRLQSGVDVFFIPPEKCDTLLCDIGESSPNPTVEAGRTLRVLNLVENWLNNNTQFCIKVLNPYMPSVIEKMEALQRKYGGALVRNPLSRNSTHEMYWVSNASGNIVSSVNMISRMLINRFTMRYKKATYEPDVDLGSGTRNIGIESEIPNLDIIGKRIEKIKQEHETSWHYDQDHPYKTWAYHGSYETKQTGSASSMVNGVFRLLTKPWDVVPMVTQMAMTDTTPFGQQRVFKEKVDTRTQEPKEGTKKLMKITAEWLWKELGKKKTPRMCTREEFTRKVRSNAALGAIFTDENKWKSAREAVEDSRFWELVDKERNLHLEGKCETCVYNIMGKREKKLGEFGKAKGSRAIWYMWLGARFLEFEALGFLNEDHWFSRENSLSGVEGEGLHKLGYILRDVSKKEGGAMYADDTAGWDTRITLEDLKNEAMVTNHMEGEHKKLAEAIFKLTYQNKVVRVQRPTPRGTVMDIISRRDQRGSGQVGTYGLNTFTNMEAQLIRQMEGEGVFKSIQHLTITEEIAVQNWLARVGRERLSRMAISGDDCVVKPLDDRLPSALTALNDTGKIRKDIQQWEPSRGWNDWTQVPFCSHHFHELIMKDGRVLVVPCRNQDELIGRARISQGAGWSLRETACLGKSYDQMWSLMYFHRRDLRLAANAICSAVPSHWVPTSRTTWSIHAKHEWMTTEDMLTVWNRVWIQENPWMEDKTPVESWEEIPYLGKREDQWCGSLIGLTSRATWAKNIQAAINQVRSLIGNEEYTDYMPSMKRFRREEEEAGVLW

[12] = molecular target: Photoreceptor-specific nuclear receptor (Homo sapiens, UniProt Q9Y5X4); type: functional, cell-based;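 note: CHO-S cells with Gal4-NCOR and VP16-NR2E3 two-hybrid luciferase reporter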
Sequence of Photoreceptor-specific nuclear receptor (Q9Y5X4 whole entry, the tested form may be a part): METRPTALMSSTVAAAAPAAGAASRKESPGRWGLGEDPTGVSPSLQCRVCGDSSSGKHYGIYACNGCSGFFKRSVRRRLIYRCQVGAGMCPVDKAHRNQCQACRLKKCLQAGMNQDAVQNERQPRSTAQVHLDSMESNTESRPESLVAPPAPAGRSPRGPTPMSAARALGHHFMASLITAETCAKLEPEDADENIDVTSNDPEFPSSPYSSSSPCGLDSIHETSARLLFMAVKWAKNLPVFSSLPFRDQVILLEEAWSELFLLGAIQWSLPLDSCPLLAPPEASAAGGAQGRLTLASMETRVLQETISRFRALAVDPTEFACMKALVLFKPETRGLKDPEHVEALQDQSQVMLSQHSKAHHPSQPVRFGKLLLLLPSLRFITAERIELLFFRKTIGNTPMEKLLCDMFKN

Vero = assay: viability of Vero cells under compound – cytotoxicity control for flavivirus capping enzyme inhibitors (AID 588742); type: functional; settings: Chlorocebus sabaeus

Sequence of Glyceraldehyde-3-phosphate dehydrogenase (P04406 whole entry): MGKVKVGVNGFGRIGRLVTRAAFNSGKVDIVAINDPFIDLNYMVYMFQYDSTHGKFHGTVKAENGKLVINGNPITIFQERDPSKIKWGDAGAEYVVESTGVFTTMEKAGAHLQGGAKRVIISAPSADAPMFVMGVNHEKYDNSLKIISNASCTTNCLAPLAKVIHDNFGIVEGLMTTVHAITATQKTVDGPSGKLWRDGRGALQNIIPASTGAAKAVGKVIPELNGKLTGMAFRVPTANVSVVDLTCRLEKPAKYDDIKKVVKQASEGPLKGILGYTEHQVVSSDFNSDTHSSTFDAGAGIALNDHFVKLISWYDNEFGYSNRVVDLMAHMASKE

O=C(O)c1cc(S(=O)(=O)Nc2ccccc2C(=O)O)ccc1O
IC50 [1]: > 100 µM (not active) | IC50 [2]: > 9.99 µM (inactive)

Cc1ccc(S(=O)(=O)N2CCOCC2)cc1C(=O)OCC(=O)Nc1ccc2[nH]c(O)nc2c1
IC50 [3]: > 66.6 µM (inactive) | IC50 [4]: 11.4 µM (active)

CCOC(=O)N1CCC(NC(=O)c2cc3cc4cc(OC)ccc4nc3o2)CC1
IC50 [2]: > 0.37 µM (active)

CCOc1cc(/C=C2\C(=O)N(CCc3ccc(OC)c(OC)c3)C(C)=C2C(=O)OC)ccc1O
IC50 [5]: 118 µM (active) | CC50 [6]: 100 µM (active)

Cc1cccc(NC(=O)CN2C(=O)N/C(=C\c3ccc(-c4cccc(C(=O)O)c4)o3)C2=O)c1
AC50 [7]: 3.6 µM (active)

COc1cc(/C=C2\SC(=S)N(CC(=O)O)C2=O)ccc1OC(=O)c1ccco1
IC50 [8]: 4.52 µM (active) | IC50 [9]: 7.29 µM (active)

COc1ccccc1NN=C1C(=O)NC(=S)NC1=O
IC50 [8]: 23.3 µM (inactive) | IC50 [9]: 18 µM (active)

O=C(NCC1CCCO1)c1sc(=S)n2c1[nH]c(=O)c1ccc(C(=O)N3CCCCC3)cc12 (stereo not drawn)
IC50 [8]: 51.1 µM (inactive) | IC50 (Leucine aminopeptidase): 65.4 µM (active) | IC50 [9]: 21.1 µM (inactive)

Cc1ccc(S(=O)(=O)NC2=CC(=Nc3ccc(O)cc3)C(=O)c3ccccc32)cc1
IC50 [5]: 78.2 µM (active) | IC50 (Nonstructural protein 1): 7.33 µM (active) | IC50 [10]: 1.58 µM (active) | IC50 [11]: 2.14 µM (active) | AC50 (INS1): 0.588 µM (active) | CC50 [6]: 2.86 µM (active)

COc1ccc(CNC(=O)COC(=O)c2ccc(Br)c(S(=O)(=O)N3CCOCC3)c2)cc1
AC50 [7]: > 100 µM (inactive)

Cc1ccc(S(=O)(=O)N2[C@@H](c3ccc(Br)cc3)C(C(=O)O)=CC[C@H]2c2ccc(Cl)c(Cl)c2)cc1
IC50 (Genome polyprotein): 42.9 µM (active) | IC50 [3]: > 66.6 µM (inactive) | IC50 [4]: 6.25 µM (active) | IC50 [12]: 5.2 µM (active) | CC50 (Vero): > 40 µM (active)

CCN(CC)c1ccc(/C=N/NC(=O)c2ccc3c(c2)OCCO3)cc1
AC50 [7]: 74.2 µM (active)
